Measurements as given in publication PMC8557866, “Novel Small Molecule Growth Inhibitor Affecting Bacterial Outer Membrane Reduces Extraintestinal Pathogenic Escherichia coli (ExPEC) Infection in Avian Model” (Microbiology Spectrum, 2021).
Converted amounts (≈) assume the structure as drawn.

Legend:
[1] = system: APEC serotype O78; conditions: for Cumulative lesion score: PC 6.2; for Mortality reduction compared to PC group: PC mortality 58.3%; for % reduction in severity, Air sacs lesions / % reduction in severity, Heart lesions / % reduction in severity, Liver lesions / % reduction in severity, Lung lesions / log reduction in APEC load, Heart / log reduction in APEC load, Kidney / log reduction in APEC load, Liver / log reduction in APEC load, Lung: vs PC; for BWG (body weight gain): in vivo
Procedure: The efficacy of GIs was assessed using commercial broiler chickens (n = 6/group). […] GI compounds (ChemBridge, San Diego, CA) dissolved in dimethyl sulfoxide (DMSO) were administered orally using a syringe, twice a day, from day 4 (1 day before APEC infection) to day 8 (3 days postinfection [dpi]). The dose of each GI is described in Table S1. […] Chickens that were infected and vehicle-treated (positive control [PC]) and noninfected and nontreated (negative control [NC]) were included as controls. On day 5, chickens were infected subcutaneously (s.c.) with rifampin-resistant (Rif^r) APEC serotype O78 ([18]) (1 × 10^7 CFU/chicken). […] To prepare the APEC inoculum for infection, Rif^r APEC O78 (50 μg/ml rifampin) was grown to logarithmic phase in LB medium, washed twice with phosphate-buffered saline (PBS), and adjusted to an optical density at 600 nm (OD600) of 0.1 (5 × 10^7 CFU/ml). The clinical signs and mortality were recorded until 7 dpi. Chickens that died during this period were necropsied on the same day, lesions in internal organs (liver, heart, lung, and air sacs) were scored as described previously ([63], [71]), and the APEC loads were quantified in internal organs (liver, heart, lung, and kidney) by plating the tissue homogenates on MacConkey agar plates containing 50 μg/ml rifampin ([18]). At 7 dpi (day 12), all live birds were euthanized, lesions were scored, and the APEC loads in internal organs were quantified as described above. The body weight of chickens was measured before GI treatment (day 3) and at the day of necropsy (day 12).

[2] = system: APEC O78; parameters: method as in PMID 30333507; conditions: cited from earlier work
[3] = system: APEC; assay: microbe, parasite or virus in culture; assay type: cell-based, Escherichia coli; conditions: Escherichia coli
[4] = system: APEC O78; assay: Comparative efficacy of GI-7 and sulfadimethoxine, floor trial; assay type: in vivo, commercial broiler chickens; parameters: % reduction in severity, Liver lesions / % reduction in severity, Heart lesions / % reduction in severity, Lung lesions / % reduction in severity, Air sacs lesions: concentration or dose not given beside the values; Cumulative lesion score / Mean lesion score in Liver / Mean lesion score in Heart / Mean lesion score in Lung / Mean lesion score in Air sacs: scale not given here
Procedure: At day 13 (7 dpi), half of the chickens from each group, and at day 42 (slaughter age), 10 chickens from each group were necropsied and lesions and APEC loads were assessed as described above.

[5] = Pharmacokinetic study in plasma of chickens (LC-MS); assay type: in vivo; conditions: plasma
Procedure: Details of the methods are included in the supplemental material. page 3: previously(3). […] The mixtures were then incubated at […] for 30 min and proteins were removed by ultracentrifugation at 13,000xg for 25 min at 2 °C.

[6] = Quantification of residue in chicken tissues (LC-MS); assay type: in vivo, chickens
Excerpt: Chickens (n = 5/time point) from an experimental set-up as described above for the floor trial were sacrificed at 2 days (day 13; 2 DPLT), 5 days (day 16; 5 DPLT), and 31 days (day 42; 31 DPLT) post-last treatment. […] Tissue samples from chickens treated with SDM were used for comparison. […] Details of the methods are included in the supplemental material.

[7] = comparative efficacy trial, vs PC
[8] = comparative efficacy, GI-7 60 mg/liter, SDM 495.3 mg/liter, 7 dpi

CC1CCCN(CCC(=O)c2ccc(Br)cc2)C1 (stereo not shown) [GI-1]
Mean APEC load, Heart ([1]; efficacy trial, oral): 6.8 Log CFU/g tissues
Mean APEC load, Kidney ([1]; efficacy trial, oral): 6.6 Log CFU/g tissues
Mean APEC load, Liver ([1]; efficacy trial, oral): 6.7 Log CFU/g tissues
Mean APEC load, Lung ([1]; efficacy trial, oral): 6.4 Log CFU/g tissues
Mean lesion score in Air sacs ([1]; efficacy trial, oral): 1.5
Mean lesion score in Heart ([1]; efficacy trial, oral): 2.0
Mean lesion score in Liver ([1]; efficacy trial, oral): 2.0
Mean lesion score in Lung ([1]; efficacy trial, oral): 0.7
Cumulative lesion score ([1]; efficacy trial, oral): 6.2
Mortality reduction compared to PC group ([1]; efficacy trial, oral): 8.3%
% reduction in severity, Air sacs lesions ([1]; efficacy trial, oral): −5.9%
% reduction in severity, Heart lesions ([1]; efficacy trial, oral): 4%
% reduction in severity, Liver lesions ([1]; efficacy trial, oral): −20%
% reduction in severity, Lung lesions ([1]; efficacy trial, oral): 33.3%
log reduction in APEC load, Heart ([1]; efficacy trial, oral): -1.8 Log CFU/g tissues
log reduction in APEC load, Kidney ([1]; efficacy trial, oral): -1.1 Log CFU/g tissues
log reduction in APEC load, Liver ([1]; efficacy trial, oral): -2.0 Log CFU/g tissues
log reduction in APEC load, Lung ([1]; efficacy trial, oral): -1.4 Log CFU/g tissues
BWG (body weight gain) [1]: 165.6±69.2
MIC [2]: 200 µM (≈ 62 µg/mL)

COc1cc(CNCCc2ccc3ccccc3c2)ccc1OCC(O)CN1CCCC1 (stereo not shown) [GI-2]
Mean APEC load, Heart ([1]; efficacy trial, oral): 4.1 Log CFU/g tissues
Mean APEC load, Kidney ([1]; efficacy trial, oral): 3.8 Log CFU/g tissues
Mean APEC load, Liver ([1]; efficacy trial, oral): 3.4 Log CFU/g tissues
Mean APEC load, Lung ([1]; efficacy trial, oral): 3.5 Log CFU/g tissues
Mean lesion score in Air sacs ([1]; efficacy trial, oral): 1.2
Mean lesion score in Heart ([1]; efficacy trial, oral): 1.8
Mean lesion score in Liver ([1]; efficacy trial, oral): 1.7
Mean lesion score in Lung ([1]; efficacy trial, oral): 0.7
Cumulative lesion score ([1]; efficacy trial, oral): 5.3
Mortality reduction compared to PC group ([1]; efficacy trial, oral): 25%
% reduction in severity, Air sacs lesions ([1]; efficacy trial, oral): 17.7%
% reduction in severity, Heart lesions ([1]; efficacy trial, oral): 12%
% reduction in severity, Liver lesions ([1]; efficacy trial, oral): 0%
% reduction in severity, Lung lesions ([1]; efficacy trial, oral): 33.3%
log reduction in APEC load, Heart ([1]; efficacy trial, oral): 0.8 Log CFU/g tissues
log reduction in APEC load, Kidney ([1]; efficacy trial, oral): 1.7 Log CFU/g tissues
log reduction in APEC load, Liver ([1]; efficacy trial, oral): 0.9 Log CFU/g tissues
log reduction in APEC load, Lung ([1]; efficacy trial, oral): 1.1 Log CFU/g tissues
BWG (body weight gain) [1]: 125.5±34.7
MIC [2]: 100 µM (≈ 43.5 µg/mL)

COc1cc(CNCCc2ccc(C)cc2)ccc1OCC(O)CN1CCCC1 (stereo not shown) [GI-3]
Mean APEC load, Heart ([1]; efficacy trial, oral): 7.0 Log CFU/g tissues
Mean APEC load, Kidney ([1]; efficacy trial, oral): 6.9 Log CFU/g tissues
Mean APEC load, Liver ([1]; efficacy trial, oral): 6.5 Log CFU/g tissues
Mean APEC load, Lung ([1]; efficacy trial, oral): 7.0 Log CFU/g tissues
Mean lesion score in Air sacs ([1]; efficacy trial, oral): 1.8
Mean lesion score in Heart ([1]; efficacy trial, oral): 2
Mean lesion score in Liver ([1]; efficacy trial, oral): 2
Mean lesion score in Lung ([1]; efficacy trial, oral): 1
Cumulative lesion score ([1]; efficacy trial, oral): 6.8
% reduction in severity, Air sacs lesions ([1]; efficacy trial, oral): −29.4%
% reduction in severity, Heart lesions ([1]; efficacy trial, oral): 4%
% reduction in severity, Liver lesions ([1]; efficacy trial, oral): −20%
% reduction in severity, Lung lesions ([1]; efficacy trial, oral): 0%
log reduction in APEC load, Heart ([1]; efficacy trial, oral): -2.1 Log CFU/g tissues
log reduction in APEC load, Kidney ([1]; efficacy trial, oral): -1.4 Log CFU/g tissues
log reduction in APEC load, Liver ([1]; efficacy trial, oral): -1.8 Log CFU/g tissues
log reduction in APEC load, Lung ([1]; efficacy trial, oral): -2.0 Log CFU/g tissues
BWG (body weight gain) [1]: 254.6±95
MIC [2]: 100 µM (≈ 39.9 µg/mL)

CCN1/C(=C/c2ccc3ccccc3[n+]2CC)C=Cc2ccccc21 [GI-9]
Mean APEC load, Heart ([1]; efficacy trial, oral): 5.9 Log CFU/g tissues
Mean APEC load, Kidney ([1]; efficacy trial, oral): 5.7 Log CFU/g tissues
Mean APEC load, Liver ([1]; efficacy trial, oral): 4.7 Log CFU/g tissues
Mean APEC load, Lung ([1]; efficacy trial, oral): 5.6 Log CFU/g tissues
Mean lesion score in Air sacs ([1]; efficacy trial, oral): 2.7
Mean lesion score in Heart ([1]; efficacy trial, oral): 3.3
Mean lesion score in Liver ([1]; efficacy trial, oral): 2.5
Cumulative lesion score ([1]; efficacy trial, oral): 9.7
Mortality reduction compared to PC group ([1]; efficacy trial, oral): 25%
% reduction in severity, Air sacs lesions ([1]; efficacy trial, oral): −88.2%
% reduction in severity, Heart lesions ([1]; efficacy trial, oral): −60%
% reduction in severity, Liver lesions ([1]; efficacy trial, oral): −50%
log reduction in APEC load, Heart ([1]; efficacy trial, oral): -0.5 Log CFU/g tissues
log reduction in APEC load, Kidney ([1]; efficacy trial, oral): -0.2 Log CFU/g tissues
log reduction in APEC load, Liver ([1]; efficacy trial, oral): -0.1 Log CFU/g tissues
log reduction in APEC load, Lung ([1]; efficacy trial, oral): -0.9 Log CFU/g tissues
BWG (body weight gain) [1]: 214.9±31.9
MIC [2]: 25 µM

CC(=O)OC(C(Br)C(=O)c1ccc([N+](=O)[O-])cc1)C(Cl)(Cl)Cl (stereo not shown) [GI-10]
Mean APEC load, Heart ([1]; efficacy trial, oral): 3.9 Log CFU/g tissues
Mean APEC load, Kidney ([1]; efficacy trial, oral): 3.1 Log CFU/g tissues
Mean APEC load, Liver ([1]; efficacy trial, oral): 3.9 Log CFU/g tissues
Mean APEC load, Lung ([1]; efficacy trial, oral): 3.7 Log CFU/g tissues
Mean lesion score in Air sacs ([1]; efficacy trial, oral): 1.7
Mean lesion score in Heart ([1]; efficacy trial, oral): 2.2
Mean lesion score in Liver ([1]; efficacy trial, oral): 1.3
Mean lesion score in Lung ([1]; efficacy trial, oral): 1
Survival of chickens ([1]; efficacy trial, oral, P ≤ 0.1, log rank test): prolonged the survival
Cumulative lesion score ([1]; efficacy trial, oral): 6.2
Mortality reduction compared to PC group ([1]; efficacy trial, oral): 41.7%
% reduction in severity, Air sacs lesions ([1]; efficacy trial, oral): −17.6%
% reduction in severity, Heart lesions ([1]; efficacy trial, oral): −4%
% reduction in severity, Liver lesions ([1]; efficacy trial, oral): 20%
% reduction in severity, Lung lesions ([1]; efficacy trial, oral): 0%
log reduction in APEC load, Heart ([1]; efficacy trial, oral): 1.0 Log CFU/g tissues
log reduction in APEC load, Kidney ([1]; efficacy trial, oral): 2.4 Log CFU/g tissues
log reduction in APEC load, Liver ([1]; efficacy trial, oral): 0.8 Log CFU/g tissues
log reduction in APEC load, Lung ([1]; efficacy trial, oral): 1.4 Log CFU/g tissues
BWG (body weight gain) [1]: 220.8±38.9
MBC [3]: 50 µM (≈ 21.7 µg/mL)
MIC [3]: 25 µM (≈ 10.8 µg/mL)
MIC [2]: 25 µM (≈ 10.8 µg/mL)

COc1cc(NS(=O)(=O)c2ccc(N)cc2)nc(OC)n1 [SDM, sulfadimethoxine, reference compound]
Mortality reduction compared to PC group ([4]; GI-7 60 mg/liter, SDM 495.3 mg/liter in drinking water, PC mortality 41.2%): 11.9%
Mean APEC load, Heart ([4]; comparative efficacy trial): 5.6 Log CFU/g tissues
Mean APEC load, Kidney ([4]; comparative efficacy trial): 5.5 Log CFU/g tissues
Mean APEC load, Liver ([4]; comparative efficacy trial): 5.0 Log CFU/g tissues
Mean APEC load, Lung ([4]; comparative efficacy trial): 6.2 Log CFU/g tissues
log reduction in APEC load, Heart [4, 7]: 2.3 Log CFU/g tissues
log reduction in APEC load, Kidney [4, 7]: 2.2 Log CFU/g tissues
log reduction in APEC load, Liver [4, 7]: 2.5 Log CFU/g tissues
log reduction in APEC load, Lung [4, 7]: 1.9 Log CFU/g tissues
Cumulative lesion score ([4]; comparative efficacy, 7 dpi): 8.5
Mean lesion score in Air sacs [4, 8]: 2.5
Mean lesion score in Heart [4, 8]: 2.8
Mean lesion score in Liver [4, 8]: 2.0
Mean lesion score in Lung [4, 8]: 1.2
% reduction in severity, Air sacs lesions ([4]; comparative efficacy, vs PC): 25.7%
% reduction in severity, Heart lesions ([4]; comparative efficacy, vs PC): 20.8%
% reduction in severity, Liver lesions ([4]; comparative efficacy, vs PC): 19.2%
% reduction in severity, Lung lesions ([4]; comparative efficacy, vs PC): 36.9%
Survival of chickens ([4]; floor trial, P < 0.1): increased the survival
Overall BWG ([4]; in vivo): 2,408.1 g
Overall FCR ([4]; in vivo): 1.49
Cmax ([5]; commercial broiler, po, mean ± standard deviation, read-out: Peak plasma concentration (Cmax)): 994 ± 167 ng/mL
Tmax ([5]; commercial broiler, po, postadministration, read-out: Time to maximum concentration (Tmax)): 24 h
Absorption (time at which absorbed) ([5]; drinking water delivery): 2 h
Residue concentration in muscle ([6]; 2 DPLT): 0.2 ± 0.1 ppm/g tissue
Residue level in kidney ([6]; 2 DPLT): 1.0 ± 0.2 ppm/g tissue
Residue level in liver ([6]; 2 DPLT): 0.2 ± 0.04 ppm/g tissue
Residue concentration in muscle ([6]; 5 DPLT): 0.02 ± 0.02 ppm/g tissue
Residue level in kidney ([6]; 5 DPLT): 1 ± 0.1 ppm/g tissue
Residue level in liver ([6]; 5 DPLT): 0.04 ± 0.02 ppm/g tissue
Residue concentration in muscle ([6]; 31 DPLT): 0.0 ± 0.0 ppm/g tissue
Residue level in kidney ([6]; 31 DPLT): 0.0 ± 0.0 ppm/g tissue
Residue level in liver ([6]; 31 DPLT): 0.0 ± 0.0 ppm/g tissue
